Measurements taken from patent publication US4181797A, “1-N-(ω-amino-α-hydroxyalkanoyl) derivatives of 4'-deoxy-6'-N-methylkanamycin A” (Bristol-Myers Company, priority 1978, dated 1980).
In brackets after ≈: the same amount, converted by molar mass. Where two headings read alike, the source gives them in different places.

How the values were obtained:
E. cloacae A21006 = assay: MIC in Mueller-Hinton agar, APH(3')-II producer; assay type: cell-based; conditions: Enterobacter cloacae
Experimental: (§1) The Minimum Inhibitory Concentrations (MIC's) of BB-K311, amikacin and kanamycin A were determined in Mueller-Hinton agar against a number of kanamycin-sensitive and kanamycin-resistant strains of organisms.

E. coli A20107 = assay: MIC in Mueller-Hinton agar, APH(3')-II producer; assay type: cell-based; conditions: Escherichia coli
Experimental: as §1

K. pneumoniae A15130 = assay: MIC in Mueller-Hinton agar, kanamycin-sensitive strain; assay type: cell-based; conditions: Klebsiella pneumoniae
Experimental: as §1

E. coli A9632 = assay: as above; assay type: cell-based; conditions: Escherichia coli
Experimental: as §1

E. cloacae A20464 = assay: as above; assay type: cell-based; conditions: Enterobacter cloacae
Experimental: as §1

P. stuartii A20615 = assay: as above; assay type: cell-based; conditions: Providencia stuartii
Experimental: as §1

S. aureus Smith = assay: as above; assay type: cell-based; conditions: Staphylococcus aureus
Experimental: as §1

P. Morganii A20031 = assay: as above; assay type: cell-based; conditions: Morganella morganii
Experimental: as §1

B. brevis ATCC8185 = assay: as above; assay type: cell-based; conditions: Brevibacillus brevis
Experimental: as §1

S. marcescens A20019 = assay: as above; assay type: cell-based; conditions: Serratia marcescens
Experimental: as §1

P. vulgaris A9526 = assay: as above; assay type: cell-based; conditions: Proteus vulgaris
Experimental: as §1

P. mirabilis A9900 = assay: as above; assay type: cell-based; conditions: Proteus mirabilis
Experimental: as §1

E. coli A20895 = assay: MIC in Mueller-Hinton agar, AAC(3)-I producer; assay type: cell-based; conditions: Escherichia coli
Experimental: as §1

E. coli A20732 = assay: MIC in Mueller-Hinton agar, ANT(2") producer; assay type: cell-based; conditions: Escherichia coli
Experimental: as §1

[1] = test system: aminoglycoside-sensitive and aminoglycoside-resistant strains; assay: Antibacterial spectrum, Table 1 strains; assay type: cell-based; conditions: strains of Table 1, compared with amikacin
Experimental: as §1

[2] = test system: AAC(6')-producing and ANT(4')-producing strains; assay: Average activity relative to amikacin, Table 2 strains; assay type: cell-based; conditions: AAC(6')-producing and ANT(4')-producing strains of Table 2
Experimental: as §1

S. marcescens A21235 = assay: MIC in Mueller-Hinton agar, AAC(6')-producing strain; assay type: cell-based; conditions: Serratia marcescens
Experimental: as §1

S. aureus A22153 = assay: as above; assay type: cell-based; conditions: Staphylococcus aureus
Experimental: as §1

S. epidermidis A22152 = assay: as above; assay type: cell-based; conditions: Staphylococcus epidermidis
Experimental: as §1

S. aureus A22421 = assay: as above; assay type: cell-based; conditions: Staphylococcus aureus
Experimental: as §1

S. marcescens A21226 = assay: as above; assay type: cell-based; conditions: Serratia marcescens
Experimental: as §1

S. marcescens A22382 = assay: as above; assay type: cell-based; conditions: Serratia marcescens
Experimental: as §1

S. epidermidis A22211 = assay: as above; assay type: cell-based; conditions: Staphylococcus epidermidis
Experimental: as §1

P. aeruginosa GN4925 = assay: as above; assay type: cell-based; conditions: Pseudomonas aeruginosa
Experimental: as §1

S. marcescens A22288 = assay: as above; assay type: cell-based; conditions: Serratia marcescens
Experimental: as §1

P. rettgeri HM-56 = assay: as above; assay type: cell-based; conditions: Providencia rettgeri, HM56
Experimental: as §1

P. aeruginosa GN315 = assay: as above; assay type: cell-based; conditions: Pseudomonas aeruginosa
Experimental: as §1

E. cloacae HM-43 = assay: as above; assay type: cell-based; conditions: Enterobacter cloacae, HM43
Experimental: as §1

E. coli A2128 = assay: as above; assay type: cell-based; conditions: Escherichia coli
Experimental: as §1

E. cloacae A20364 = assay: MIC in Mueller-Hinton agar, APH(3')-I producer; assay type: cell-based; conditions: Enterobacter cloacae
Experimental: as §1

E. coli A20363 = assay: MIC in Mueller-Hinton agar, APH(3')-I producer; assay type: cell-based; conditions: Escherichia coli
Experimental: as §1

S. epidermidis A22033 = assay: MIC in Mueller-Hinton agar, ANT(4')-producing strain; assay type: cell-based; conditions: Staphylococcus epidermidis
Experimental: as §1

B. brevis IFO 12334 = assay: as above; assay type: cell-based; conditions: Brevibacillus brevis, IFO12334
Experimental: as §1

S. aureus A22054 = assay: as above; assay type: cell-based; conditions: Staphylococcus aureus
Experimental: as §1

[3] = test system: strains which phosphorylate the 3'-hydroxy group; conditions: background statement; cited from earlier work

CNC[C@@H]1C[C@H](O)[C@@H](O)[C@@H](O[C@H]2[C@H](O)[C@@H](O[C@H]3O[C@H](CO)[C@@H](O)[C@H](N)[C@H]3O)[C@H](NC(=O)[C@@H](O)CCN)C[C@@H]2N)O1 [BB-K311, 1-N-[L-(-)-γ-amino-α-hydroxybutyryl]-4'-deoxy-6'-N-methylkanamycin A]
MIC (E. cloacae A21006; E. cloacae A21006, enzyme produced: APH(3')-II, Mueller-Hinton agar, read-out: MIC): 3.1 µg/mL (≈ 5.31 µM)
MIC (E. coli A20107; E. coli A20107, enzyme produced: APH(3')-II, Mueller-Hinton agar, read-out: MIC): 6.3 µg/mL (≈ 10.8 µM)
MIC (K. pneumoniae A15130; K. pneumoniae A15130, enzyme produced: none, Mueller-Hinton agar, read-out: MIC): 1.6 µg/mL (≈ 2.74 µM)
MIC (E. coli A9632; E. coli A9632, enzyme produced: none, Mueller-Hinton agar, read-out: MIC): 1.6 µg/mL (≈ 2.74 µM)
MIC (E. cloacae A20464; E. cloacae A20464, enzyme produced: none, Mueller-Hinton agar, read-out: MIC): 3.1 µg/mL (≈ 5.31 µM)
MIC (P. stuartii A20615; P. stuartii A20615, enzyme produced: none, Mueller-Hinton agar, read-out: MIC): 3.1 µg/mL (≈ 5.31 µM)
MIC (S. aureus Smith; S. aureus Smith, enzyme produced: none, Mueller-Hinton agar, read-out: MIC): 1.6 µg/mL (≈ 2.74 µM)
MIC (P. Morganii A20031; P. Morganii A20031, enzyme produced: none, Mueller-Hinton agar, read-out: MIC): 6.3 µg/mL (≈ 10.8 µM)
MIC (B. brevis ATCC8185; B. brevis ATCC8185, enzyme produced: none, Mueller-Hinton agar, read-out: MIC): 1.6 µg/mL (≈ 2.74 µM)
MIC (S. marcescens A20019; S. marcescens A20019, enzyme produced: none, Mueller-Hinton agar, read-out: MIC): 1.6 µg/mL (≈ 2.74 µM)
MIC (P. vulgaris A9526; P. vulgaris A9526, enzyme produced: none, Mueller-Hinton agar, read-out: MIC): 0.8 µg/mL (≈ 1.37 µM)
MIC (P. mirabilis A9900; P. mirabilis A9900, enzyme produced: none, Mueller-Hinton agar, read-out: MIC): 6.3 µg/mL (≈ 10.8 µM)
MIC (E. coli A20895; E. coli A20895, enzyme produced: AAC(3)-I, Mueller-Hinton agar, read-out: MIC): 3.1 µg/mL (≈ 5.31 µM)
MIC (E. coli A20732; E. coli A20732, enzyme produced: ANT(2"), Mueller-Hinton agar, read-out: MIC): 1.6 µg/mL (≈ 2.74 µM)
antibacterial spectrum [1]: antibacterial spectrum similar to amikacin
activity relative to amikacin, on the average [2]: twice as active as amikacin
MIC (S. marcescens A21235; S. marcescens A21235, AAC(6')-producing, Mueller-Hinton agar, read-out: MIC): 12.5 µg/mL (≈ 21.4 µM)
MIC (S. aureus A22153; S. aureus A22153, AAC(6')-producing, Mueller-Hinton agar, read-out: MIC): 12.5 µg/mL (≈ 21.4 µM)
MIC (S. epidermidis A22152; S. epidermidis A22152, AAC(6')-producing, Mueller-Hinton agar, read-out: MIC): 3.1 µg/mL (≈ 5.31 µM)
MIC (S. aureus A22421; S. aureus A22421, AAC(6')-producing, Mueller-Hinton agar, read-out: MIC): 12.5 µg/mL (≈ 21.4 µM)
MIC (S. marcescens A21226; S. marcescens A21226, AAC(6')-producing, Mueller-Hinton agar, read-out: MIC): 3.1 µg/mL (≈ 5.31 µM)
MIC (S. marcescens A22382; S. marcescens A22382, AAC(6')-producing, Mueller-Hinton agar, read-out: MIC): 6.3 µg/mL (≈ 10.8 µM)
MIC (S. epidermidis A22211; S. epidermidis A22211, AAC(6')-producing, Mueller-Hinton agar, read-out: MIC): 12.5 µg/mL (≈ 21.4 µM)
MIC (P. aeruginosa GN4925; P. aeruginosa GN4925, AAC(6')-producing, Mueller-Hinton agar, read-out: MIC): 12.5 µg/mL (≈ 21.4 µM)
MIC (S. marcescens A22288; S. marcescens A22288, AAC(6')-producing, Mueller-Hinton agar, read-out: MIC): 3.1 µg/mL (≈ 5.31 µM)
MIC (P. rettgeri HM-56; P. rettgeri HM-56, AAC(6')-producing, Mueller-Hinton agar, read-out: MIC): 12.5 µg/mL (≈ 21.4 µM)
MIC (P. aeruginosa GN315; P. aeruginosa GN315, AAC(6')-producing, Mueller-Hinton agar, read-out: MIC): 25 µg/mL (≈ 42.8 µM)
MIC (E. cloacae HM-43; E. cloacae HM-43, AAC(6')-producing, Mueller-Hinton agar, read-out: MIC): 3.1 µg/mL (≈ 5.31 µM)
MIC (E. coli A2128; E. coli A2128, AAC(6')-producing, Mueller-Hinton agar, read-out: MIC): 3.1 µg/mL (≈ 5.31 µM)
MIC (E. cloacae A20364; E. cloacae A20364, enzyme produced: APH(3')-I, Mueller-Hinton agar, read-out: MIC): 6.3 µg/mL (≈ 10.8 µM)
MIC (E. coli A20363; E. coli A20363, enzyme produced: APH(3')-I, Mueller-Hinton agar, read-out: MIC): 3.1 µg/mL (≈ 5.31 µM)
MIC (S. epidermidis A22033; S. epidermidis A22033, ANT(4')-producing, Mueller-Hinton agar, read-out: MIC): 1.6 µg/mL (≈ 2.74 µM)
MIC (B. brevis IFO 12334; B. brevis IFO 12334, ANT(4')-producing, Mueller-Hinton agar, read-out: MIC): 3.1 µg/mL (≈ 5.31 µM)
MIC (S. aureus A22054; S. aureus A22054, ANT(4')-producing, Mueller-Hinton agar, read-out: MIC): 3.1 µg/mL (≈ 5.31 µM)

NC[C@H]1O[C@H](O[C@H]2[C@H](O)[C@@H](O[C@H]3O[C@H](CO)[C@@H](O)[C@H](N)[C@H]3O)[C@H](N)C[C@@H]2N)[C@H](O)[C@@H](O)[C@@H]1O [Kanamycin A, kanamycin A]
MIC (E. cloacae A21006; A21006): 100 µg/mL (≈ 206 µM)
MIC (E. coli A20107; A20107): 100 µg/mL (≈ 206 µM)
MIC (K. pneumoniae A15130; A15130): 1.6 µg/mL (≈ 3.3 µM)
MIC (E. coli A9632; A9632): 1.6 µg/mL (≈ 3.3 µM)
MIC (E. cloacae A20464; A20464): 6.3 µg/mL (≈ 13 µM)
MIC (P. stuartii A20615; A20615): 1.6 µg/mL (≈ 3.3 µM)
MIC (S. aureus Smith): 0.8 µg/mL (≈ 1.65 µM)
MIC (P. Morganii A20031): 3.1 µg/mL (≈ 6.4 µM)
MIC (B. brevis ATCC8185; ATCC8185): 1.6 µg/mL (≈ 3.3 µM)
MIC (S. marcescens A20019; A20019): 1.6 µg/mL (≈ 3.3 µM)
MIC (P. vulgaris A9526; A9526): 0.8 µg/mL (≈ 1.65 µM)
MIC (P. mirabilis A9900; A9900): 1.6 µg/mL (≈ 3.3 µM)
MIC (E. coli A20895; A20895): 1.6 µg/mL (≈ 3.3 µM)
MIC (E. coli A20732; A20732): 25 µg/mL (≈ 51.6 µM)
MIC (S. marcescens A21235; A21235): 50 µg/mL (≈ 103 µM)
MIC (S. aureus A22153; A22153): > 100 µg/mL
MIC (S. epidermidis A22152; A22152): > 100 µg/mL
MIC (S. aureus A22421; A22421): > 100 µg/mL
MIC (S. marcescens A21226; A21226): 12.5 µg/mL (≈ 25.8 µM)
MIC (S. marcescens A22382; A22382): 25 µg/mL (≈ 51.6 µM)
MIC (S. epidermidis A22211; A22211): > 100 µg/mL
MIC (P. aeruginosa GN4925; GN4925): 100 µg/mL (≈ 206 µM)
MIC (S. marcescens A22288; A22288): > 100 µg/mL
MIC (P. rettgeri HM-56): > 100 µg/mL
MIC (P. aeruginosa GN315; GN315): > 100 µg/mL
MIC (E. cloacae HM-43): > 100 µg/mL
MIC (E. coli A2128; A2128): 100 µg/mL (≈ 206 µM)
activity against 3'-hydroxy phosphorylating strains [3]: certain strains of Gram-negative bacteria are resistant to kanamycin A
MIC (E. cloacae A20364; A20364): 100 µg/mL (≈ 206 µM)
MIC (E. coli A20363; A20363): 100 µg/mL (≈ 206 µM)
MIC (S. epidermidis A22033; A22033): 50 µg/mL (≈ 103 µM)
MIC (B. brevis IFO 12334): > 100 µg/mL
MIC (S. aureus A22054; A22054): > 100 µg/mL
